Reference: US7524869B2, “Taxanes having a C10 ester substituent” (Florida State University Research Foundation, Inc., priority 2000, dated 2009)

System: HCT116
Assay: In vitro cytotoxicity measured by the cell colony formation assay
Assay type: cell-based
Conditions: HCT116 cells, 72 h drug incubation, colonies counted after 7 days; ID50 = drug concentration producing 50% inhibition of colony formation; read-out: IN VITRO ID 50 (nm) HCT116
Procedure: In Vitro Cytotoxicity Measured by the Cell Colony Formation Assay
Four hundred cells (HCT116) were plated in 60 mm Petri dishes containing 2.7 mL of medium (modified McCoy's 5a medium containing 10% fetal bovine serum and 100 units/mL penicillin and 100 µg/mL streptomycin). The cells were incubated in a CO2 incubator at 37° C. for 5 h for attachment to the bottom of Petri dishes. The compounds identified in Example 2 were made up fresh in medium at ten times the final concentration, and then 0.3 mL of this stock solution was added to the 2.7 mL of medium in the dish. The cells were then incubated with drugs for 72 h at 37° C. At the end of incubation the drug-containing media were decanted, the dishes were rinsed with 4 mL of Hank's Balance Salt Solution (HBSS), 5 mL of fresh medium was added, and the dishes were returned to the incubator for colony formation. The cell colonies were counted using a colony counter after incubation for 7 days.

| Compound | IC50 |
| --- | --- |
| CCC(=O)O[C@H]1C(=O)[C@@]2(C)C([C@H](OC(=O)c3ccccc3)[C@]3(O)C[C@H](OC(=O)[C@H](O)[C@H](C=C(C)C)NC(=O)OC(C)(C)C)C(C)=C1C3(C)C)[C@]1(OC(C)=O)CO[C@@H]1C[C@@H]2O (stereo partly shown) [Compound 0499] | < 1 nM |
| CCC(=O)O[C@H]1C(=O)[C@@]2(C)C([C@H](OC(=O)c3ccccc3)[C@]3(O)C[C@H](OC(=O)[C@H](O)[C@@H](NC(=O)OC(C)(C)C)c4ccccn4)C(C)=C1C3(C)C)[C@]1(OC(C)=O)CO[C@@H]1C[C@@H]2O (stereo partly shown) [Compound 0503] | < 1 nM |
| CCC(=O)O[C@H]1C(=O)[C@@]2(C)C([C@H](OC(=O)c3ccccc3)[C@]3(O)C[C@H](OC(=O)[C@H](O)[C@@H](NC(=O)OC(C)(C)C)c4cccnc4)C(C)=C1C3(C)C)[C@]1(OC(C)=O)CO[C@@H]1C[C@@H]2O (stereo partly shown) [Compound 0517] | < 10 nM |
| CCC(=O)O[C@H]1C(=O)[C@@]2(C)C([C@H](OC(=O)c3ccccc3)[C@]3(O)C[C@H](OC(=O)[C@H](O)[C@@H](NC(=O)OC(C)(C)C)c4ccncc4)C(C)=C1C3(C)C)[C@]1(OC(C)=O)CO[C@@H]1C[C@@H]2O (stereo partly shown) [Compound 0521] | < 1 nM |
| CCC(=O)O[C@H]1C(=O)[C@@]2(C)C([C@H](OC(=O)c3ccccc3)[C@]3(O)C[C@H](OC(=O)[C@H](O)[C@@H](NC(=O)OC(C)(C)C)c4ccco4)C(C)=C1C3(C)C)[C@]1(OC(C)=O)CO[C@@H]1C[C@@H]2O (stereo partly shown) [Compound 0536] | < 1 nM |
| CCC(=O)O[C@H]1C(=O)[C@@]2(C)C([C@H](OC(=O)c3ccccc3)[C@]3(O)C[C@H](OC(=O)[C@H](O)[C@@H](NC(=O)OC(C)(C)C)c4ccoc4)C(C)=C1C3(C)C)[C@]1(OC(C)=O)CO[C@@H]1C[C@@H]2O (stereo partly shown) [Compound 0549] | < 10 nM |
| CCC(=O)O[C@H]1C(=O)[C@@]2(C)C([C@H](OC(=O)c3ccccc3)[C@]3(O)C[C@H](OC(=O)[C@H](O)[C@@H](NC(=O)OC(C)(C)C)c4cccs4)C(C)=C1C3(C)C)[C@]1(OC(C)=O)CO[C@@H]1C[C@@H]2O (stereo partly shown) [Compound 0550] | < 10 nM |
| CCC(=O)O[C@H]1C(=O)[C@@]2(C)C([C@H](OC(=O)c3ccccc3)[C@]3(O)C[C@H](OC(=O)[C@H](O)[C@@H](NC(=O)OC(C)(C)C)c4ccsc4)C(C)=C1C3(C)C)[C@]1(OC(C)=O)CO[C@@H]1C[C@@H]2O (stereo partly shown) [Compound 0562] | < 1 nM |
| CCC(=O)O[C@H]1C(=O)[C@@]2(C)C([C@H](OC(=O)c3ccccc3)[C@]3(O)C[C@H](OC(=O)[C@H](O)[C@@H](NC(=O)OC(C)(C)C)C4CC4)C(C)=C1C3(C)C)[C@]1(OC(C)=O)CO[C@@H]1C[C@@H]2O (stereo partly shown) [Compound 0578] | < 1 nM |
| CCC(=O)O[C@H]1C(=O)[C@@]2(C)C([C@H](OC(=O)c3ccccc3)[C@]3(O)C[C@H](OC(=O)[C@H](O)[C@@H](NC(=O)OC(C)(C)C)C(C)C)C(C)=C1C3(C)C)[C@]1(OC(C)=O)CO[C@@H]1C[C@@H]2O (stereo partly shown) [Compound 0583] | < 10 nM |
| CCC(=O)O[C@H]1C(=O)[C@@]2(C)C([C@H](OC(=O)c3ccccc3)[C@]3(O)C[C@H](OC(=O)[C@H](O)[C@@H](NC(=O)OC(C)(C)C)C4CCC4)C(C)=C1C3(C)C)[C@]1(OC(C)=O)CO[C@@H]1C[C@@H]2O (stereo partly shown) [Compound 0596] | < 10 nM |
| CCC(=O)O[C@H]1C(=O)[C@@]2(C)C([C@H](OC(=O)c3ccccc3)[C@]3(O)C[C@H](OC(=O)[C@H](O)[C@@H](NC(=O)OC(C)(C)C)c4ccc([N+](=O)[O-])cc4)C(C)=C1C3(C)C)[C@]1(OC(C)=O)CO[C@@H]1C[C@@H]2O (stereo partly shown) [Compound 0602] | < 1 nM |
| CCC(=O)O[C@H]1C(=O)[C@@]2(C)C([C@H](OC(=O)c3ccccc3)[C@]3(O)C[C@H](OC(=O)[C@H](O)[C@@H](NC(=O)OC(C)(C)C)c4ccccc4)C(C)=C1C3(C)C)[C@]1(OC(C)=O)CO[C@@H]1C[C@@H]2O (stereo partly shown) [Compound 0611] | < 10 nM |
| CCC(=O)O[C@H]1C(=O)[C@@]2(C)C([C@H](OC(=O)c3ccccc3)[C@]3(O)C[C@H](OC(=O)[C@H](O)[C@H](C=C(C)C)NC(=O)c4ccccc4)C(C)=C1C3(C)C)[C@]1(OC(C)=O)CO[C@@H]1C[C@@H]2O (stereo partly shown) [Compound 0625] | < 1 nM |
| CCC(=O)O[C@H]1C(=O)[C@@]2(C)C([C@H](OC(=O)c3ccccc3)[C@]3(O)C[C@H](OC(=O)[C@H](O)[C@@H](NC(=O)c4ccccc4)c4ccccn4)C(C)=C1C3(C)C)[C@]1(OC(C)=O)CO[C@@H]1C[C@@H]2O (stereo partly shown) [Compound 0634] | < 10 nM |
| CCC(=O)O[C@H]1C(=O)[C@@]2(C)C([C@H](OC(=O)c3ccccc3)[C@]3(O)C[C@H](OC(=O)[C@H](O)[C@@H](NC(=O)c4ccccc4)c4ccncc4)C(C)=C1C3(C)C)[C@]1(OC(C)=O)CO[C@@H]1C[C@@H]2O (stereo partly shown) [Compound 0659] | < 1 nM |
| CCC(=O)O[C@H]1C(=O)[C@@]2(C)C([C@H](OC(=O)c3ccccc3)[C@]3(O)C[C@H](OC(=O)[C@H](O)[C@@H](NC(=O)c4ccccc4)c4ccco4)C(C)=C1C3(C)C)[C@]1(OC(C)=O)CO[C@@H]1C[C@@H]2O (stereo partly shown) [Compound 0663] | < 1 nM |
| CCC(=O)O[C@H]1C(=O)[C@@]2(C)C([C@H](OC(=O)c3ccccc3)[C@]3(O)C[C@H](OC(=O)[C@H](O)[C@@H](NC(=O)c4ccccc4)c4ccoc4)C(C)=C1C3(C)C)[C@]1(OC(C)=O)CO[C@@H]1C[C@@H]2O (stereo partly shown) [Compound 0670] | < 1 nM |
| CCC(=O)O[C@H]1C(=O)[C@@]2(C)C([C@H](OC(=O)c3ccccc3)[C@]3(O)C[C@H](OC(=O)[C@H](O)[C@@H](NC(=O)c4ccccc4)c4ccsc4)C(C)=C1C3(C)C)[C@]1(OC(C)=O)CO[C@@H]1C[C@@H]2O (stereo partly shown) [Compound 0691] | < 1 nM |
| CCC(=O)O[C@H]1C(=O)[C@@]2(C)C([C@H](OC(=O)c3ccccc3)[C@]3(O)C[C@H](OC(=O)[C@H](O)[C@@H](NC(=O)c4ccccc4)C4CC4)C(C)=C1C3(C)C)[C@]1(OC(C)=O)CO[C@@H]1C[C@@H]2O (stereo partly shown) [Compound 0706] | < 1 nM |
| CCC(=O)O[C@H]1C(=O)[C@@]2(C)C([C@H](OC(=O)c3ccccc3)[C@]3(O)C[C@H](OC(=O)[C@H](O)[C@@H](NC(=O)c4ccccc4)C(C)C)C(C)=C1C3(C)C)[C@]1(OC(C)=O)CO[C@@H]1C[C@@H]2O (stereo partly shown) [Compound 0719] | < 10 nM |
| CCC(=O)O[C@H]1C(=O)[C@@]2(C)C([C@H](OC(=O)c3ccccc3)[C@]3(O)C[C@H](OC(=O)[C@H](O)[C@@H](NC(=O)c4ccccc4)C4CCC4)C(C)=C1C3(C)C)[C@]1(OC(C)=O)CO[C@@H]1C[C@@H]2O (stereo partly shown) [Compound 0720] | < 10 nM |
| CCC(=O)O[C@H]1C(=O)[C@@]2(C)C([C@H](OC(=O)c3ccccc3)[C@]3(O)C[C@H](OC(=O)[C@H](O)[C@@H](NC(=O)c4ccccc4)c4ccc([N+](=O)[O-])cc4)C(C)=C1C3(C)C)[C@]1(OC(C)=O)CO[C@@H]1C[C@@H]2O (stereo partly shown) [Compound 0732] | < 10 nM |
| CCC(=O)O[C@H]1C(=O)[C@@]2(C)C([C@H](OC(=O)c3ccccc3)[C@]3(O)C[C@H](OC(=O)[C@H](O)[C@@H](NC(=O)c4ccccc4)c4ccccc4)C(C)=C1C3(C)C)[C@]1(OC(C)=O)CO[C@@H]1C[C@@H]2O (stereo partly shown) [Compound 0748] | < 10 nM |
| CC(=O)O[C@@]12CO[C@@H]1C[C@H](O)[C@@]1(C)C(=O)[C@H](OC(=O)C3CC3)C3=C(C)[C@@H](OC(=O)[C@H](O)[C@H](C=C(C)C)NC(=O)OC(C)(C)C)C[C@@](O)([C@@H](OC(=O)c4ccccc4)C12)C3(C)C (stereo partly shown) [Compound 0838] | < 1 nM |
